Read-outs that look alike come from different tables or passages of the source.
Assays:
B. cinerea B05-10 = type: cell-based, Botrytis cinerea
From the text: (§1) Next, we assessed the potential antifungal activity of At25 (ARACIN1) and At20 (ARACIN2) by an in vitro antifungal bioassay. Both propeptide and mature forms of At25 and At20 were produced by chemical synthesis (see Materials and Methods) and tested against A. brassicicola, B. cinerea B05-10 and B. cinerea Korea by means of a microtiter broth dilution assay (FIG. 9).
(§2) 11. Antifungal Activity Assay
(§3) Synthetic proAt25 peptide, mature At25 peptide, proat20 and mature At20 peptides were purchased from genscript (on the World Wide web at genscript.com). Stock solutions of 2×10^7 spores/ml of Botrytis cinerea B05-10, Botrytis cinerea Korea, Fusarium oxysporum and Alternaria brassicicola were diluted in ½ PDB (12 g/l Potato Dextrose Broth in water) to a final concentration of 2×10^4 spores/ml. After adding 196 μl aliquots of these spore dilutions to 4 μl of 2-fold dilution series of At25 in DMSO (starting from a 100 μg/ml stock solution) in microtiter plates, the plates were incubated on 23° C. for 48 h. DMSO was used as a negative control. Growth of the fungi was evaluated both microscopically and by measuring the OD600. Each fungus was tested in duplicate in the microtiter plates. Additionally, for Alternaria brassicicola this antifungal assay was repeated twice. For each assay, the average OD600 of each dilution and the DMSO control were compared using a t-test.

B. cinerea Korea = type: cell-based, Botrytis cinerea; settings: for growth inhibition: Korea
From the text: as §1, §2, §3

A. brassicicola = type: cell-based, Alternaria brassicicola; settings: for 50% growth inhibitory concentration (IC50): 48 h
From the text: as §1, §2, §3

Substance: H-GSCGAPISKYDFQVLAKRPPPCRRPRLENTEDVTHTTRP-OH (cysteine pairing not given here) [mature At20]
- antifungal activity in comparison with proAt20 (in words) (B. cinerea B05-10; B. cinerea B05-10): remarkably increased
- antifungal activity in comparison with proAt20 (in words) (B. cinerea Korea; B. cinerea Korea): remarkably increased
- 50% growth inhibitory concentration (IC50) (A. brassicicola): 1.55 ± 0.11 µg/mL
- reduction of IC50 value compared with the propeptide (proAt20) (A. brassicicola; A. brassicicola, mature At20 versus proAt20): 86%

Substance: NH2-SIPDDDMGPAIYTPPSGSCGA PISKYDFQVLAKRPPPCRRPRLENTEDVTHTTRP-COOH [proAt20]
- growth inhibition (B. cinerea B05-10; B05-10, 20 μg mL^−1): 62%
- concentration from which statistically significant antifungal effect starts (B. cinerea B05-10; B. cinerea B05-10): 20 µg/mL
- concentration from which statistically significant antifungal effect starts (B. cinerea Korea; B. cinerea Korea): 20 µg/mL
- growth inhibition (B. cinerea Korea; 20 μg mL^−1): 64.8%
- growth inhibition (A. brassicicola; 5 μg mL^−1): 36.7%
- 50% growth inhibitory concentration (IC50) (A. brassicicola): 11.32 ± 1.28 µg/mL
- concentration from which growth inhibition / statistically significant antifungal effect starts (A. brassicicola; A. brassicicola): 5 µg/mL

Substance: NH2-RRSDTGPDISTPPSGSCGASIAE FNSSQILAKRAPPCRRPRLQNSEDVTHTTLP-COOH (H-RRSDTGPDISTPPSGSCGASIAEFNSSQILAKRAPPCRRPRLQNSEDVTHTTLP-OH; cysteine pairing not given here; listed as Arabidopsis thaliana) [proAt25]
- inhibitory activity (in words) (B. cinerea B05-10; B. cinerea B05-10, data not shown): no statistically significant inhibitory activities
- inhibitory activity (in words) (B. cinerea Korea; B. cinerea Korea, data not shown): no statistically significant inhibitory activities
- inhibitory activity (in words) (A. brassicicola; A. brassicicola, data not shown): no statistically significant inhibitory activities

Substance: H-GSCGASIAEFNSSQILAKRAPPCRRPRLQNSEDVTHTTLP-OH (cysteine pairing not given here) [mature At25]
- growth inhibition (B. cinerea B05-10; B05-10, 10 μg mL^−1): 95.7%
- 50% growth inhibitory concentration (IC50) (B. cinerea B05-10; B05-10, 48 h): 3.05 ± 0.25 µg/mL
- 50% growth inhibitory concentration (IC50) (B. cinerea Korea; B. cinerea Korea, 48 h, 23° C., OD600): 2.03 ± 0.44 µg
- growth inhibition (B. cinerea Korea; 10 μg mL^−1): 94%
- 50% growth inhibitory concentration (IC50) (A. brassicicola): 5.46 ± 0.57 µg/mL
- concentration from which growth inhibition / statistically significant antifungal effect starts (A. brassicicola; A. brassicicola): 1 µg/mL
